# Reference: article PMC6025042, “HSQC-TOCSY Fingerprinting-Directed Discovery of Antiplasmodial Polyketides from the Marine Ascidian-Derived Streptomyces sp. (USC-16018)” (Marine Drugs, 2018)
# Like-named read-outs stand apart in the source and are kept apart here.
# Assays:
# [1] = test system: Plasmodium yoelii; conditions: cited from earlier work; for doses needed to clear the animals from the parasites: P. yoelii infected mice
# [2] = test system: P. falciparum 3D7; assay: antiplasmodial imaging assay, P. falciparum 3D7; assay type: cell-based, Plasmodium falciparum; conditions: for inhibition at 40 µM / % Inhibition at 40 µM, P. falciparum 3D7: chloroquine sensitive strain; for IC50: read-out: IC50, P. falciparum 3D7
# Method: (§1) The parasites were subjected to two rounds of sorbitol synchronization before undergoing compound treatment. The ring stage parasites were exposed to the experimental compounds in 384-wells imaging microplates (PerkinElmer CellCarrier, Waltham, MA, USA), as previously described in Reference. The plates were incubated for 72h at 37 °C, 90% N2, 5% CO2, 5% O2, then the parasites were stained with 2-(4-amidinophenyl)-1H–indole-6-carboxamidine (DAPI), and imaged using an Opera QEHS micro-plate confocal imaging system (PerkinElmer, Waltham, MA, USA). The images were analysed as previously described in Reference.
# (§2) The raw data were normalized using the in-plate positive and negative controls to obtain the normalized % inhibition data, which was then used to calculate the IC50 values through a 4-parameter logistic curve fitting in the GraphPad Prism (Version 6.0, La Jolla, CA, USA). The experiments were carried out in two independent biological replicates, each consisting of two technical replicates.
# [3] = test system: P. falciparum Dd2; assay: antiplasmodial imaging assay, P. falciparum Dd2; assay type: cell-based, Plasmodium falciparum; conditions: for inhibition at 40 µM / % Inhibition at 40 µM, P. falciparum Dd2: chloroquine- and pyrimethamine-resistant strain; for IC50: read-out: IC50, P. falciparum Dd2
# Method: as §1, §2
# [4] = test system: HEK-293 Cells; assay: cells; assay type: cell-based; conditions: for inhibition at 40 µM: read-out: % Inhibition at 40 µM, HEK-293 Cells; for IC50: value in brackets
# Method: Human Embryonic Kidney cells (HEK293) were maintained in the Dulbecco’s Modified Eagle Medium (DMEM) medium supplemented with 10% FBS. The HEK293 cells were exposed to the compounds in TC-treated 384-wells plates (Falcon, Durham, NC, USA). […] After an additional 5–6 h incubation at standard conditions, the total fluorescence (excitation/emission: 530 nm/595 nm) was measured using the Envision plate reader (PerkinElmer, Waltham, MA, USA).
# as §2
# [5] = set-up: method as in PMID 21454186; conditions: cited from earlier work
# [6] = test system: chloroquine-sensitive and chloroquine-resistant Plasmodium falciparum strains; set-up: method as in PMID 14514358; conditions: chloroquine-sensitive and chloroquine-resistant strains equally; read-out: IC50, growth of P. falciparum; cited from earlier work
# [7] = test system: K1 strain; set-up: method as in PMID 27554496; conditions: read-out: IC50 against the K1 strain; cited from earlier work
# [8] = Plasmodium falciparum, 3D7, 40 µM, 72 h, read-out: % Inhibition at 40 µM, P. falciparum 3D7
# [9] = Plasmodium falciparum, 3D7, 72 h, value in brackets
# [10] = Plasmodium falciparum, DD2, 40 µM, 72 h, read-out: % Inhibition at 40 µM, P. falciparum Dd2
# [11] = Plasmodium falciparum, DD2, 72 h, value in brackets
# [12] = Homo sapiens, HEK293, 40 µM, 72 h
# [13] = Plasmodium falciparum, 3D7, 72 h, read-out: % Inhibition at 40 µM, P. falciparum 3D7, 40 µM, 72 h
# [14] = Plasmodium falciparum, DD2, 72 h, read-out: % Inhibition at 40 µM, P. falciparum Dd2, 40 µM, 72 h
# [15] = 40 µM, 72 h, listed as Herbimycin G (1)
# [16] = 40 µM, 72 h, listed as Elaiophylin (2)
# [17] = 72 h, value in brackets, listed as Elaiophylin (2)
molecule,measurement,setting,value
"C=CCNC1=C2C[C@@H](C)C[C@H](OC)[C@H](O)[C@@H](C)/C=C(\C)[C@H](OC(N)=O)[C@@H](OC)/C=C\C=C(/C)C(=O)NC(=CC1=O)C2=O [17-AAG, 17-N-allylamino-17-demethoxygeldanamycin]",doses needed to clear the animals from the parasites,[1],a second dose of 17-AAG was needed
same,efficacy against Plasmodium yoelii in mouse models,"[1]; intra-peritoneal, doses of 7.2 mg/kg",effective against Plasmodium yoelii in mouse models
same,time to complete clearance of parasitemia after reinfection,[1]; treated mice reinfected with P. yoelii,9 days
C[C@H]1[C@H](OC(=O)CCC(=O)O)O[C@@H]2O[C@@]3(C)CC[C@H]4[C@H](C)CC[C@@H]1[C@@]24OO3 [Artesunate],inhibition at 40 µM,[2]; [8],99.6%
same,IC50,[2]; [9],0.9 nM
same,inhibition at 40 µM,[3]; [10],98.4%
same,IC50,[3]; [11],1.3 nM
same,inhibition at 40 µM,[4]; [12],50.6%
CCN(CC)CCCC(C)Nc1ccnc2cc(Cl)ccc12 (stereo not shown) [Chloroquine],doses needed to clear the animals from the parasites,[1],a single dose of chloroquine was sufficient to fully clear the animals from the parasites
same,inhibition at 40 µM,[2]; [13],98.8%
same,IC50,"[2]; Plasmodium falciparum, 3D7, 72 h",10 nM
same,inhibition at 40 µM,[3]; [14],96.5%
same,IC50,"[3]; Plasmodium falciparum, DD2, 72 h",87.9 nM
same,inhibition at 40 µM,"[4]; Homo sapiens, HEK293, 72 h",40.9%
C[C@H]1[C@@H](O)O[C@@H]2O[C@@]3(C)CC[C@H]4[C@H](C)CC[C@@H]1[C@@]24OO3 [Dihydroartemisinin],inhibition at 40 µM,[2]; [8],99.9%
same,IC50,[2]; [9],0.4 nM
same,inhibition at 40 µM,[3]; [10],98%
same,IC50,[3]; [11],0.6 nM
same,inhibition at 40 µM,[4]; [12],37.9%
"COC1=C2C[C@@H](C)C[C@H](OC)[C@H](O)[C@@H](C)/C=C(\C)[C@H](OC(N)=O)[C@@H](OC)/C=C\C=C(/C)C(=O)NC(=CC1=O)C2=O [Geld, geldanamycin]",water solubility (in words),[5],low water solubility
same,IC50,[6],20 nM
COc1ccc(C[C@H](N)C(=O)N[C@H]2[C@@H](O)[C@H](n3cnc4c(N(C)C)ncnc43)O[C@@H]2CO)cc1 [Puromycin],inhibition at 40 µM,[2]; [8],99%
same,IC50,[2]; [9],149 nM
same,inhibition at 40 µM,[3]; [10],99.1%
same,IC50,[3]; [11],114 nM
same,inhibition at 40 µM,[4]; [12],103%
same,IC50,"[4]; Homo sapiens, HEK293, 72 h",1410 nM
CCc1nc(N)nc(N)c1-c1ccc(Cl)cc1 [Pyrimethamine],inhibition at 40 µM,[2]; [8],98.7%
same,IC50,[2]; [9],4.7 nM
same,inhibition at 40 µM,[3]; [10],23.2%
same,inhibition at 40 µM,[4]; [12],68.4%
COc1ccc2nc3cc(Cl)ccc3c(Nc3cc(CN4CCCC4)c(O)c(CN4CCCC4)c3)c2n1 [Pyronaridine],inhibition at 40 µM,[2]; [8],99.9%
same,IC50,[2]; [9],7.4 nM
same,inhibition at 40 µM,[3]; [10],97.8%
same,IC50,[3]; [11],8.3 nM
same,inhibition at 40 µM,[4]; [12],98.7%
same,IC50,"[4]; Homo sapiens, HEK293, 72 h",2830 nM
"CO[C@H]1[C@@H](OC)C[C@H](C)[C@@H](OC)C2=C[C@@H](O)C[C@@H](NC(=O)/C(C)=C/C=C\[C@H](OC)[C@@H](OC(N)=O)/C(C)=C/[C@@H]1C)C2=O [compound 1, herbimycin G]","% Inhibition at 40 µM, P. falciparum 3D7","[2]; 40 µM, 72 h",> 75%
same,"% Inhibition at 40 µM, P. falciparum 3D7",[2]; [15],77.2%
same,antiplasmodial activity (in words),[2]; 3D7 and Dd2 strains,weak antiplasmodial activity
same,inhibition at 40 µM,[2]; [13],77%
same,"% Inhibition at 40 µM, P. falciparum Dd2",[3]; [15],81.7%
same,inhibition at 40 µM,[3]; [14],> 75%
same,"% Inhibition at 40 µM, HEK-293 Cells","[4]; 40 µM, 72 h",no effect
same,cytotoxicity (in words),[4]; HEK293,no cytotoxicity
"CC(C)C[C@@H]1NC(=O)[C@@H]2CCCN2C1=O [compound 3, Cyclo-L-Pro-L-Leu]",inhibition at 40 µM,[2]; [8],45.9%
same,inhibition at 40 µM,[3]; [10],39%
same,"% Inhibition at 40 µM, HEK-293 Cells","[4]; 40 µM, 72 h",no effect
"O=C1N[C@@H](Cc2ccccc2)C(=O)N2CCC[C@@H]12 [compound 4, Cyclo-L-Pro-L-Phe]","% Inhibition at 40 µM, P. falciparum 3D7","[2]; 40 µM, 72 h",no effect
same,"% Inhibition at 40 µM, P. falciparum Dd2","[3]; 40 µM, 72 h",no effect
same,"% Inhibition at 40 µM, HEK-293 Cells","[4]; 40 µM, 72 h",no effect
"CC(C)[C@@H]1NC(=O)[C@@H]2CCCN2C1=O [compound 5, Cyclo-L-Pro-L-Val]","% Inhibition at 40 µM, P. falciparum 3D7","[2]; 40 µM, 72 h",no effect
same,"% Inhibition at 40 µM, P. falciparum Dd2","[3]; 40 µM, 72 h",no effect
same,"% Inhibition at 40 µM, HEK-293 Cells","[4]; 40 µM, 72 h",no effect
"O=C1N[C@@H](Cc2ccc(O)cc2)C(=O)N2CCC[C@@H]12 [compound 6, Cyclo-L-Pro-L-Tyr]","% Inhibition at 40 µM, P. falciparum 3D7","[2]; 40 µM, 72 h",no effect
same,"% Inhibition at 40 µM, P. falciparum Dd2","[3]; 40 µM, 72 h",no effect
same,"% Inhibition at 40 µM, HEK-293 Cells","[4]; 40 µM, 72 h",no effect
elaiophylin [compound 2],"% Inhibition at 40 µM, P. falciparum 3D7","[2]; 40 µM, 72 h",> 75%
same,"% Inhibition at 40 µM, P. falciparum 3D7",[2]; [16],96.6%
same,IC50,[2]; [17],778 nM
same,IC50,[7],214 nM
same,"% Inhibition at 40 µM, P. falciparum Dd2","[3]; 40 µM, 72 h",> 75%
same,"% Inhibition at 40 µM, P. falciparum Dd2",[3]; [16],86.1%
same,IC50,[3]; [17],598 nM
same,"% Inhibition at 40 µM, HEK-293 Cells","[4]; 40 µM, 72 h",101.9%
same,IC50,[4]; 72 h,1440 nM
same,cytotoxicity (in words),[4]; HEK293,highly cytotoxic
